Assay results: patent US10000527B2, “11-substituted bile acid derivatives, process for the preparation thereof and use of these compounds as medicaments” (priority 2013, dated 2018)
Values after ≈ are worked out from the molar mass of the structure shown. Read-outs that look alike come from different tables or passages of the source.

What was measured:
[1] = tested on: M. Tuberculosis H37Ra (ACTIVE); test: Anti TB in vitro, active; format: cell-based, Mycobacterium tuberculosis H37Ra; conditions: Mycobacterium tuberculosis
M. Tuberculosis [2] = test: Anti TB ex vivo infection model, dormant; format: cell-based; conditions: Mycobacterium tuberculosis
[3] = tested on: Panc-1 (Human pancreas carcinoma cell line); test: Anti-cancer screening, Panc-1 cell proliferation; format: cell-based; conditions: for IC50: concentration required to inhibit 50% of the cell proliferation; for IC90: concentration required to inhibit 90% of the cell proliferation, read-out: MIC
[4] = tested on: THP-1 (Human acute monocytic leukemia cell line); test: Anti-cancer screening, THP-1 cell proliferation; format: cell-based; conditions: for IC50: concentration required to inhibit 50% of the cell proliferation; for IC90: concentration required to inhibit 90% of the cell proliferation, read-out: MIC
[5] = tested on: HeLa (Human Cervix epithelioid carcinoma cell line); test: Anti-cancer screening, HeLa cell proliferation; format: cell-based; conditions: for IC50: concentration required to inhibit 50% of the cell proliferation; for IC90: concentration required to inhibit 90% of the cell proliferation, read-out: MIC
[6] = tested on: M. Tuberculosis H37Ra (DORMANT); test: Anti TB in vitro, dormant; format: cell-based, Mycobacterium tuberculosis H37Ra; conditions: Mycobacterium tuberculosis
M. Tuberculosis [7] = test: Anti TB ex vivo infection model, active; format: cell-based; conditions: Mycobacterium tuberculosis
[8] = tested on: A549 (Human lung adenocarcinoma epithelial cell line); test: Anti-cancer screening, A549 cell proliferation; format: cell-based; conditions: for IC50: concentration required to inhibit 50% of the cell proliferation; for IC90: concentration required to inhibit 90% of the cell proliferation, read-out: MIC
[9] = In Vitro, H37Ra ACTIVE, read-out: IC 50
[10] = In Vitro, H37Ra ACTIVE, read-out: MIC
[11] = In Vitro, H37Ra DORMANT, read-out: IC 50
[12] = In Vitro, H37Ra DORMANT, read-out: MIC

Row | Structure (SMILES) | IC50 [1, 9] [µg/mL] | MIC [1, 10] [µg/mL] | IC50 (M. Tuberculosis [2]) [µg/mL] | MIC (M. Tuberculosis [2]) [µg/mL] | IC50 [3] [µg/mL] | IC90 [3] [µg/mL] | melting point [°C] | IC50 [4] [µg/mL] | IC90 [4] [µg/mL] | IC50 [5] [µg/mL] | IC90 [5] [µg/mL] | IC50 [6, 11] [µg/mL] | MIC [6, 12] [µg/mL] | IC50 (M. Tuberculosis [7]) [µg/mL] | MIC (M. Tuberculosis [7]) [µg/mL] | IC50 [8] [µg/mL] | IC90 [8] [µg/mL] | further results
1 | COC(=O)CC[C@@H](C)C1CCC2C3C([C@H](n4nnc5ccccc54)C(=O)[C@@]21C)[C@@]1(C)CC[C@@H](OC(C)=O)C[C@H]1C[C@H]3OC(C)=O (stereo partly drawn) [Compound 8, (3R,5S,7R,10S,11S,13R)-11-(1H-benzo[d][1,2,3]triazol-1-yl)-17-((R)-5-methoxy-5-oxopentan-2-yl)-10,13-dimethyl-12-oxohexadecahydro-1H-cyclopenta[a]phenanthrene-3,7-diyl diacetate] | 1.08 | 9.79 | 1.65 | 8.16 | 50 | > 100 | 106 to 109 | 29.9 | > 100 | 20.3 | > 100 | 1.27 | 7.15 | 1.11 | 8.6 | 20 | > 100 | –
2 | COC(=O)CC[C@@H](C)C1CCC2C3C([C@H](n4cc(-c5ccccc5)nn4)C(=O)[C@@]21C)[C@@]1(C)CC[C@@H](OC(C)=O)C[C@H]1C[C@H]3OC(C)=O (stereo partly drawn) [Compound 1, (3R,5S,7R,10S,11S,13R)-17-((R)-5-methoxy-5-oxopentan-2-yl)-10,13-dimethyl-12-oxo-11-(4-phenyl-1H-1,2,3-triazol-1-yl)hexadecahydro-1H-cyclopenta[a]phenanthrene-3,7-diyl diacetate] | – | – | – | – | > 100 | > 100 | – | > 100 | > 100 | 7.02 | 99.1 | – | – | – | – | > 100 | > 100 | –
3 | COC(=O)CC[C@@H](C)C1CCC2C3C([C@H](NC(=O)C4CCCN4C(=O)OC(C)(C)C)C(=O)[C@@]21C)[C@@]1(C)CC[C@@H](OC(C)=O)C[C@H]1C[C@H]3OC(C)=O (stereo partly drawn) [Compound 9, (3R,5S,7R,10S,11S,13R)-11-(1-(tert-butoxycarbonyl)pyrrolidine-2-carboxamido)-17-((R)-5-methoxy-5-oxopentan-2-yl)-10,13-dimethyl-12-oxohexadecahydro-1H-cyclopenta[a]phenanthrene-3,7-diyldiacetate] | 0.92 (≈ 1.28 µM) | 9.41 (≈ 13.1 µM) | 3.42 (≈ 4.77 µM) | 26.3 (≈ 36.7 µM) | 15 (≈ 20.9 µM) | > 100 | 114 to 118 | 46 (≈ 64.1 µM) | > 100 | 18.6 (≈ 25.9 µM) | > 100 | 2.02 (≈ 2.82 µM) | 8.91 (≈ 12.4 µM) | 4.16 (≈ 5.8 µM) | 26.8 (≈ 37.4 µM) | 52 (≈ 72.5 µM) | > 100 | –
4 | CO[C@H]1/C=C/O[C@@]2(C)Oc3c(C)c(O)c4c(O)c(c(/C=N/N5CCN(C)CC5)c(O)c4c3C2=O)NC(=O)/C(C)=C\C=C\[C@H](C)[C@H](O)[C@@H](C)[C@@H](O)[C@@H](C)[C@H](OC(C)=O)[C@@H]1C [RIFAMPICIN, reference compound] | 0.0018 (≈ 0.00219 µM) | 0.048 (≈ 0.0583 µM) | 0.0018 (≈ 0.00219 µM) | 0.048 (≈ 0.0583 µM) | – | – | – | – | – | – | – | 0.0014 (≈ 0.0017 µM) | 0.043 (≈ 0.0523 µM) | 0.0021 (≈ 0.00255 µM) | 0.051 (≈ 0.062 µM) | – | – | –
5 | CC(=O)O[C@H]1C(=O)[C@@]2(C)[C@H]([C@H](OC(=O)c3ccccc3)[C@]3(O)C[C@H](OC(=O)[C@H](O)[C@@H](NC(=O)c4ccccc4)c4ccccc4)C(C)=C1C3(C)C)[C@]1(OC(C)=O)CO[C@@H]1C[C@@H]2O [Paclitaxel, reference compound] | – | – | – | – | 0.128 (≈ 0.15 µM) | 5.71 (≈ 6.69 µM) | – | 0.137 (≈ 0.161 µM) | 5.81 (≈ 6.81 µM) | 0.0048 (≈ 0.00562 µM) | 0.075 (≈ 0.0878 µM) | – | – | – | – | 0.0035 (≈ 0.0041 µM) | 0.0706 (≈ 0.0827 µM) | –
6 | COC(=O)CC[C@@H](C)C1CCC2C3C([C@H](n4cc(-c5ccccn5)nn4)C(=O)[C@@]21C)[C@@]1(C)CC[C@@H](OC(C)=O)C[C@H]1C[C@H]3OC(C)=O (stereo partly drawn) [Compound 4, (3R,5S,7R,10S,11S,13R)-17-((R)-5-methoxy-5-oxopentan-2-yl)-10,13-dimethyl-12-oxo-11-(4-(pyridin-2-yl)-1H-1,2,3-triazol-1-yl)hexadecahydro-1H-cyclopenta[a]phenanthrene-3,7-diyl diacetate] | – | – | – | – | > 100 | > 100 | – | > 100 | > 100 | 15.2 | 85.9 | – | – | – | – | > 100 | > 100 | –
7 | COC(=O)CC[C@@H](C)C1CCC2C3C([C@H](NC(C)C)C(=O)[C@@]21C)[C@@]1(C)CC[C@@H](OC(C)=O)C[C@H]1C[C@H]3OC(C)=O (stereo partly drawn) [Compound 10, (3R,5S,7R,10S,11S,13R)-11-(isopropylamino)-17-((R)-5-methoxy-5-oxopentan-2-yl)-10,13-dimethyl-12-oxohexadecahydro-1H-cyclopenta[a]phenanthrene-3,7-diyl diacetate] | – | – | – | – | > 100 | > 100 | – | > 100 | > 100 | 11.6 | > 100 | – | – | – | – | > 100 | > 100 | –
8 | COC(=O)CC[C@@H](C)C1CCC2C3C([C@H](NC(=O)C(CO)NC(=O)OC(C)(C)C)C(=O)[C@@]21C)[C@@]1(C)CC[C@@H](OC(C)=O)C[C@H]1C[C@H]3OC(C)=O (stereo partly drawn) [Compound 7, (3R,5S,7R,10S,11S,13R)-11-(2-((tert-butoxycarbonyl)amino)-3-hydroxypropanamido)-17-((R)-5-methoxy-5-oxopentan-2-yl)-10,13-dimethyl-12-oxohexadecahydro-1H-cyclopenta[a]phenanthrene-3,7-diyl diacetate] | 1.24 | 9.03 | 1.32 | 23.8 | > 100 | > 100 | – | 76.2 | > 100 | 18.2 | > 100 | 0.58 | 8.6 | 1.96 | 27.3 | > 100 | > 100 | –
9 | CCCCCCc1cn([C@@H]2C(=O)[C@@]3(C)C(CCC3[C@H](C)CCC(=O)OC)C3C2[C@@]2(C)CC[C@@H](OC(C)=O)C[C@H]2C[C@H]3OC(C)=O)nn1 (stereo partly drawn) [Compound 2, (3R,5S,7R,10S,11S,13R)-11-(4-hexyl-1H-1,2,3-triazol-1-yl)-17-((R)-5-methoxy-5-oxopentan-2-yl)-10,13-dimethyl-12-oxohexadecahydro-1H-cyclopenta[a]phenanthrene-3,7-diyl diacetate] | 0.64 | 2.63 | 0.13 | 1.55 | > 100 | > 100 | – | > 100 | > 100 | 6.59 | > 100 | 0.17 | 2.43 | 0.25 | 2.8 | > 100 | > 100 | –
10 | COC(=O)CC[C@@H](C)C1CCC2C3C([C@H](n4cc(-c5ccc(F)cc5)nn4)C(=O)[C@@]21C)[C@@]1(C)CC[C@@H](OC(C)=O)C[C@H]1C[C@H]3OC(C)=O (stereo partly drawn) [Compound 3, (3R,5S,7R,10S,11S,13R)-11-(4-(4-fluorophenyl)-1H-1,2,3-triazol-1-yl)-17-((R)-5-methoxy-5-oxopentan-2-yl)-10,13-dimethyl-12-oxohexadecahydro-1H-cyclopenta[a]phenanthrene-3,7-diyl diacetate] | – | – | – | – | > 100 | > 100 | – | > 100 | > 100 | 9.76 | > 100 | – | – | – | – | > 100 | > 100 | –
11 | NNC(=O)c1ccncc1 [ISONIAZID, reference compound] | – | – | 0.0024 (≈ 0.0175 µM) | 0.0078 (≈ 0.0569 µM) | – | – | – | – | – | – | – | – | – | 0.0024 (≈ 0.0175 µM) | 0.075 (≈ 0.547 µM) | – | – | IC50 ([1]; H37RA): 0.0019 µg/mL (≈ 0.0139 µM); MIC ([1]; H37RA): 0.074 µg/mL (≈ 0.54 µM); IC50 ([6]; H37RA): 0.0023 µg/mL (≈ 0.0168 µM); MIC ([6]; H37RA): 0.075 µg/mL (≈ 0.547 µM)
12 | COC(=O)CC[C@@H](C)C1CCC2C3C([C@H](NC(=O)C4CCCN4)C(=O)[C@@]21C)[C@@]1(C)CC[C@@H](OC(C)=O)C[C@H]1C[C@H]3OC(C)=O (stereo partly drawn) [Compound 6, (3R,5S,7R,10S,11S,13R)-17-((R)-5-methoxy-5-oxopentan-2-yl)-10,13-dimethyl-12-oxo-11-(pyrrolidine-2-carboxamido)hexadecahydro-1H-cyclopenta[a]phenanthrene-3,7-diyl diacetate] | – | – | – | – | > 100 | > 100 | 102.6 to 103.8 | > 100 | > 100 | > 100 | > 100 | – | – | – | – | > 100 | > 100 | –
13 | CCOC(=O)N[C@@H]1C(=O)[C@@]2(C)C(CCC2[C@H](C)CCC(=O)OC)C2C1[C@@]1(C)CC[C@@H](OC(C)=O)C[C@H]1C[C@H]2OC(C)=O (stereo partly drawn) [Compound 5, (3R,5S,7R,10S,11S,13R)-11-((ethoxycarbonyl)amino)-17-((R)-5-methoxy-5-oxopentan-2-yl)-10,13-dimethyl-12-oxohexadecahydro-1H-cyclopenta[a]phenanthrene-3,7-diyl diacetate] | – | – | – | – | > 100 | > 100 | 82 to 85 | > 100 | > 100 | 34.2 | > 100 | – | – | – | – | > 100 | > 100 | –
